In article PMC8286840, “Identifying SARS-CoV-2 antiviral compounds by screening for small molecule inhibitors of Nsp3 papain-like protease” (Biochemical Journal, 2021):
Where a name gives a salt, the structure may show the parent alone. Read-outs that look alike come from different tables or passages of the source. Where a SMILES comes first, the peptide text is derived from it. [ ]: non-standard residue; d: D form. dPhe(4-Cl) = N[C@H](Cc1ccc(Cl)cc1)C(=O)O; d2Nal = N[C@H](Cc1ccc2ccccc2c1)C(=O)O; Lys(iPr) = CC(C)NCCCC[C@H](N)C(=O)O; NMeY = CN[C@@H](Cc1ccc(O)cc1)C(=O)O; d3Pal = N[C@H](Cc1cccnc1)C(=O)O

Legend:
[1] = target: T1, SARS-CoV-2 PLpro (nsp3 1564–1878) (Severe acute respiratory syndrome coronavirus 2, UniProt P0DTD1); assay: biochemical; set-up: FRET-quenched peptide (Pro3) cleavage by PLpro, 10 min pre-incubation, slope over 20 min, normalised to no-compound control; conditions: low concentration screen, read-out: % of control remaining
[2] = target: T1, SARS-CoV-2 PLpro (nsp3 1564–1878); assay: biochemical; set-up: FRET-quenched peptide (Pro3) cleavage by PLpro, 10 min pre-incubation, slope over 20 min, normalised to no-compound control; conditions: high concentration screen, read-out: % of control remaining

CC(=O)Nc1cccc2c1c(Sc1ccc(Cl)cc1)c(C)n2CC(=O)O [AZD1981]
remaining activity at 1.25 µM ([1]; Well no.=7131): 98.7%
remaining activity at 3.75 µM ([2]; Well no.=7131): 95.7%

CNC(=O)c1cccc(-c2ccc3c(N4CCOC[C@@H]4C)nc(N4CCOC[C@@H]4C)nc3n2)c1 [AZD2014]
remaining activity at 1.25 µM ([1]; Well no.=5115): 106%
remaining activity at 3.75 µM ([2]; Well no.=5115): 107%

COc1nccnc1NS(=O)(=O)c1cccc(Cl)c1Cl [AZD2098]
remaining activity at 1.25 µM ([1]; Well no.=8225): 102%
remaining activity at 3.75 µM ([2]; Well no.=8225): 98.6%

COC1CCN(C(=O)c2cc(Cc3n[nH]c(=O)c4ccccc34)ccc2F)CC1 [AZD2461]
remaining activity at 1.25 µM ([1]; Well no.=5172): 105%
remaining activity at 3.75 µM ([2]; Well no.=5172): 102%

COc1cc(CCc2cc(NC(=O)c3ccc(N4C[C@@H](C)N[C@@H](C)C4)cc3)n[nH]2)cc(OC)c1 [AZD4547]
remaining activity at 1.25 µM ([1]; Well no.=5125): 101%
remaining activity at 3.75 µM ([2]; Well no.=5125): 93.9%

Cc1cc(-c2nnc(N)nc2-c2ccc(F)cc2)cc(Cl)n1 [AZD4635]
remaining activity at 1.25 µM ([1]; Well no.=8355): 98.3%
remaining activity at 3.75 µM ([2]; Well no.=8355): 96%

CN[C@@H](C)C(=O)N[C@H](C(=O)N1CCC[C@H]1C(=O)N[C@H]1c2ccccc2C[C@H]1OCC#CC#CCO[C@@H]1Cc2ccccc2[C@@H]1NC(=O)[C@@H]1CCCN1C(=O)[C@@H](NC(=O)[C@H](C)NC)C1CCCCC1)C1CCCCC1 [AZD5582]
remaining activity at 1.25 µM ([1]; Well no.=6358): 102%
remaining activity at 1.25 µM ([1]; Well no.=8416): 98.4%
remaining activity at 3.75 µM ([2]; Well no.=6358): 101%
remaining activity at 3.75 µM ([2]; Well no.=8416): 93.5%

Cn1cnc2c(F)c(Nc3ccc(Br)cc3Cl)c(C(=O)NOCCO)cc21 [AZD6244]
remaining activity at 1.25 µM ([1]; Well no.=3028): 95.9%
remaining activity at 3.75 µM ([2]; Well no.=3028): 95.3%

CN(C)C(=O)c1ccc(S(=O)(=O)c2ccc(NC(=O)[C@@](C)(O)C(F)(F)F)c(Cl)c2)cc1 [AZD7545]
remaining activity at 1.25 µM ([1]; Well no.=8528): 101%
remaining activity at 3.75 µM ([2]; Well no.=8528): 98.2%

NC(=O)Nc1cc(-c2cccc(F)c2)sc1C(=O)N[C@H]1CCCNC1 [AZD7762]
remaining activity at 1.25 µM ([1]; Well no.=2691): 94.4%
remaining activity at 3.75 µM ([2]; Well no.=2691): 95%

COc1ccc(-c2ccc3c(N4CCOC[C@@H]4C)nc(N4CCOC[C@@H]4C)nc3n2)cc1CO [AZD8055]
remaining activity at 1.25 µM ([1]; Well no.=5293): 99.1%
remaining activity at 3.75 µM ([2]; Well no.=5293): 97.4%

Cc1cc(C(=O)NOCCO)c(Nc2ccc(I)cc2F)n(C)c1=O [AZD8330]
remaining activity at 1.25 µM ([1]; Well no.=5104): 107%
remaining activity at 3.75 µM ([2]; Well no.=5104): 106%

CC(C)C[C@H](CO)Nc1nc(S[C@@H](C)c2ccccc2)nc2nc(N)sc12 [AZD8797]
remaining activity at 1.25 µM ([1]; Well no.=8313): 103%
remaining activity at 3.75 µM ([2]; Well no.=8313): 103%

CNC(=O)CN1CCC(Oc2cc3c(Nc4cccc(Cl)c4F)ncnc3cc2OC)CC1 [AZD8931]
remaining activity at 1.25 µM ([1]; Well no.=5144): 103%
remaining activity at 3.75 µM ([2]; Well no.=5144): 102%

C[C@@H](Oc1cc(NS(=O)(=O)N2CCC2)nc(SCc2cccc(F)c2F)n1)[C@@H](O)CO [AZD-5069]
remaining activity at 1.25 µM ([1]; Well no.=8409): 102%
remaining activity at 3.75 µM ([2]; Well no.=8409): 101%

Cc1c2c(nn1C)CSCc1cc(n(C)n1)CSc1cc(c3ccccc3c1)OCCCc1c(C(=O)O)n(C)c3c-2c(Cl)ccc13 [AZD-5991]
remaining activity at 1.25 µM ([1]; Well no.=7076): 101%
remaining activity at 3.75 µM ([2]; Well no.=7076): 98.9%

Nc1nc(NC2CC2)c2ncn([C@H]3C=C[C@@H](CO)C3)c2n1 [Abacavir sulfate]
remaining activity at 1.25 µM ([1]; Well no.=5326): 97.2%
remaining activity at 3.75 µM ([2]; Well no.=5326): 95.9%

CC(=O)N[C@H](Cc1ccc2ccccc2c1)C(=O)N[C@H](Cc1ccc(Cl)cc1)C(=O)N[C@H](Cc1cccnc1)C(=O)N[C@@H](CO)C(=O)N(C)[C@@H](Cc1ccc(O)cc1)C(=O)N[C@H](CC(N)=O)C(=O)N[C@@H](CC(C)C)C(=O)N[C@@H](CCCCNC(C)C)C(=O)N1CCC[C@H]1C(=O)N[C@H](C)C(N)=O [Abarelix] (Ac-[d2Nal][dPhe(4-Cl)][d3Pal]S[NMeY][dN]L[Lys(iPr)]P[dA]-NH2)
remaining activity at 1.25 µM ([1]; Well no.=6560): 95.8%
remaining activity at 3.75 µM ([2]; Well no.=6560): 98.6%

C[C@]12CC[C@H](O)CC1=CC[C@@H]1[C@@H]2CC[C@]2(C)C(c3cccnc3)=CC[C@@H]12 [Abiraterone (CB-7598)]
remaining activity at 1.25 µM ([1]; Well no.=5047): 101%
remaining activity at 3.75 µM ([2]; Well no.=5047): 106%

CC(=O)O[C@H]1CC[C@@]2(C)C(=CC[C@@H]3[C@@H]2CC[C@]2(C)C(c4cccnc4)=CC[C@@H]32)C1 [Abiraterone Acetate (CB7630)]
remaining activity at 1.25 µM ([1]; Well no.=5274): 88.4%
remaining activity at 3.75 µM ([2]; Well no.=5274): 79.5%

CC(=O)N[C@@H](C)C(=O)O [Ac-Ala-OH]
remaining activity at 1.25 µM ([1]; Well no.=8696): 96.5%
remaining activity at 3.75 µM ([2]; Well no.=8696): 96.8%

COc1ccc(-c2cc(=O)c3c(O)cc(O)cc3o2)cc1 [Acacetine]
remaining activity at 1.25 µM ([1]; Well no.=3398): 94.2%
remaining activity at 3.75 µM ([2]; Well no.=3398): 92.9%

C[C@H]1O[C@H](O[C@H]2[C@H](O)[C@@H](O)[C@@H](O[C@H]3[C@H](O)[C@@H](O)C(O)O[C@@H]3CO)O[C@@H]2CO)[C@H](O)[C@@H](O)[C@@H]1N[C@H]1C=C(CO)[C@@H](O)[C@H](O)[C@H]1O (stereo partly drawn) [Acarbose]
remaining activity at 1.25 µM ([1]; Well no.=5149): 101%
remaining activity at 3.75 µM ([2]; Well no.=5149): 104%

CCCC(=O)Nc1ccc(OCC(O)CNC(C)C)c(C(C)=O)c1 (stereo not drawn) [Acebutolol (hydrochloride)]
remaining activity at 1.25 µM ([1]; Well no.=6747): 101%
remaining activity at 3.75 µM ([2]; Well no.=6747): 97.2%

O=C(O)COC(=O)Cc1ccccc1Nc1c(Cl)cccc1Cl [Aceclofenac]
remaining activity at 1.25 µM ([1]; Well no.=2071): 103%
remaining activity at 3.75 µM ([2]; Well no.=2071): 102%

Cn1c(=O)c2c(ncn2CC(=O)O)n(C)c1=O [Acefylline]
remaining activity at 1.25 µM ([1]; Well no.=8081): 102%
remaining activity at 1.25 µM ([1]; Well no.=8491): 105%
remaining activity at 3.75 µM ([2]; Well no.=8081): 100%
remaining activity at 3.75 µM ([2]; Well no.=8491): 103%

CC(=O)N[C@@H](CCC(N)=O)C(=O)O [Aceglutamide]
remaining activity at 1.25 µM ([1]; Well no.=7402): 106%
remaining activity at 3.75 µM ([2]; Well no.=7402): 102%

COc1ccc2c(c1)c(CC(=O)OCC(=O)O)c(C)n2C(=O)c1ccc(Cl)cc1 [Acemetacin]
remaining activity at 1.25 µM ([1]; Well no.=2037): 99.2%
remaining activity at 3.75 µM ([2]; Well no.=2037): 97.7%

CC1=CC(=O)NS(=O)(=O)O1 [Acesulfame Potassium]
remaining activity at 1.25 µM ([1]; Well no.=5318): 94.9%
remaining activity at 3.75 µM ([2]; Well no.=5318): 93.1%

CC(N)=O [Acetamide]
remaining activity at 1.25 µM ([1]; Well no.=7): 101%
remaining activity at 3.75 µM ([2]; Well no.=7): 101%

CC(=O)Nc1nnc(S(N)(=O)=O)s1 [Acetazolamide]
remaining activity at 1.25 µM ([1]; Well no.=163): 101%
remaining activity at 3.75 µM ([2]; Well no.=163): 103%

CC(=O)c1ccc(S(=O)(=O)NC(=O)NC2CCCCC2)cc1 [Acetohexamide]
remaining activity at 1.25 µM ([1]; Well no.=18): 93.4%
remaining activity at 3.75 µM ([2]; Well no.=18): 98.9%

CC(=O)OC(C)C[N+](C)(C)C (stereo not drawn) [Acetyl-beta-methylcholine chloride]
remaining activity at 1.25 µM ([1]; Well no.=107): 98.7%
remaining activity at 3.75 µM ([2]; Well no.=107): 98.4%

CC(=O)N[C@@H](CSC/C=C(\C)CC/C=C(\C)CCC=C(C)C)C(=O)O [Acetyl-farnesyl-cysteine]
remaining activity at 1.25 µM ([1]; Well no.=4342): 102%
remaining activity at 3.75 µM ([2]; Well no.=4342): 102%
